Patent US10894048B2, “Antitumor drug for intermittent administration of FGFR inhibitor” (priority 2013, dated 2021)

Columns and labels:
[1] = biological target: purified recombinant human FGFR2 protein (Homo sapiens (Human), UniProt P21802); experiment: Inhibitory effect on FGFR2 kinase activity; format: biochemical; conditions: ATP 75 μM
[2] = test system: Human-derived gastric cancer OCUM-2MD3 cells; conditions: OCUM-2MD3, 72 h

Sequence of purified recombinant human FGFR2 protein (P21802 22-821): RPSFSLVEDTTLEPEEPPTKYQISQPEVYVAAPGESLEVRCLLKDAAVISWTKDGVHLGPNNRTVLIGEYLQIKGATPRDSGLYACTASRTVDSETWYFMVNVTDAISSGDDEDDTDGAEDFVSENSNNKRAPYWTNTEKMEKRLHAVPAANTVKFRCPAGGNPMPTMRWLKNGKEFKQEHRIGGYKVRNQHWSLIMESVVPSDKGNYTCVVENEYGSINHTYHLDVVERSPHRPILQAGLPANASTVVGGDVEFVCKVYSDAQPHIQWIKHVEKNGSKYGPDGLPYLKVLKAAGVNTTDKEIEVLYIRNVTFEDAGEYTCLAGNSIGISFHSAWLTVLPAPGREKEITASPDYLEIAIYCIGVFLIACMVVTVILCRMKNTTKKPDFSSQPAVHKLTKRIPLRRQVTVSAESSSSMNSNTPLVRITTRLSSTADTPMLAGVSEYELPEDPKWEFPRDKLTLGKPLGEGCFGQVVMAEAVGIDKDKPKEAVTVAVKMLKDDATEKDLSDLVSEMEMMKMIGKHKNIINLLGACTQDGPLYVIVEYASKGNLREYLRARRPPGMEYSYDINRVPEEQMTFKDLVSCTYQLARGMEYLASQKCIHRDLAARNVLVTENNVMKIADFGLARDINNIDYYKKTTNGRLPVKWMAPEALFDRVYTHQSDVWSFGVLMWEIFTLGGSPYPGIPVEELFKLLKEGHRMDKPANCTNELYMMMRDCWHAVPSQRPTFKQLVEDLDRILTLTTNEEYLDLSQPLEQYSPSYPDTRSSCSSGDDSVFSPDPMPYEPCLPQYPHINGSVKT

IC50 [1] [µM] | GI50 [2] [µM] | SMILES
> 10 | – | CC(C)c1cc(C#Cc2nn([C@H]3CCN(C(=O)/C=C/CN(C)C)C3)c3ncnc(N)c23)cc(C(C)C)c1 [Ref. Ex. Compound 4, (S)-1-(3-(4-amino-3-((3,5-diisopropylphenyl)ethynyl)-1H-pyrazolo[3,4-d]pyrimidin-1-yl)pyrrolidin-1-yl)-4-(dimethylamino)but-2-en-1-one]
– | < 0.0046 | C=CC(=O)N1C[C@@H](n2cc(C#Cc3cc(OC)cc(OC)c3)c3c(N)ncnc32)C[C@H]1C(=O)OC [Ex. Compound 66, (2S,4S)-methyl 1-acryloyl-4-(4-amino-5-((3,5-dimethoxyphenyl)ethynyl)-7H-pyrrolo[2,3-d]pyrimidin-7-yl)pyrrolidine-2-carboxylate]
